Test results taken from patent US4668698A, “[(4-phenyl-1,3-dioxan-cis-5-yl)alkyl]phenylalkanoic acid derivatives” (Imperial Chemical Industries PLC, priority 1983, dated 1987).

Experiments:
[1] = test system: blood pressure at the carotid artery; assay: hypertensive effect of U46619 in anaesthetised rats (test d); type: in vivo, rats (Alderley Park strain); settings: Rattus norvegicus, iv; intravenously via the jugular vein, anaesthetised male rats, n=3; read-out: ED50 (dose necessary to produce 50% of the maximum hypertensive effect)
Protocol: (d) Male rats (Alderley Park strain) are anaesthetised with sodium pentobarbital and blood pressure is monitored at the carotid artery. The TXA2 mimetic agent U46619 is administered intravenously via the jugular vein and an ED50 (dose necessary to produce 50% of the maximum hypertensive effect) is established (n=3). The ED50 for U46619 is approximately 5 μg/kg. A test compound is then administered either intravenously via the jugular vein or orally via a cannula directly into the stomach and the animal challenged with an ED50 dose of U46619, five minutes after dosing with test compound and then successively every ten minutes until the hypertensive effect of U46619 is no longer blocked.

[2] = test system: rabbit aortal strip (TXA2 mimetic agent U46619 as agonist); assay: rabbit aortal strip model, antagonism of the TXA2 mimetic U46619 (test a); type: cell-based
Source text: (a) The rabbit aortal strip model devised by Piper and Vane (Nature, 1969, 223, 29-35) using as agonist the TXA2 mimetic agent known as U46619 (R. L. Jones et alia in "Chemistry, Biochemistry and Pharmacological Activity of Prostanoids", eds. S. M. Roberts and F. Scheinmann, at p. 211; Pergamon Press, 1979);

| Compound | ED50 [1] [µg/kg] | pA2 [2] |
| --- | --- | --- |
| CCCCC[C@H](O)/C=C/[C@@H]1[C@@H](C/C=C\CCCC(=O)O)[C@H]2CO[C@@H]1C2 [Example U46619] | ~5 | – |
| CC1(C)OC[C@H](Cc2ccccc2CCCC(=O)O)[C@H](c2ccccc2O)O1 (relative stereo) [Example 3, 4-(o-[2,2-dimethyl-4-o-hydroxyphenyl-1,3 dioxan cis-5-ylmethyl]phenyl)butanoic acid] | – | 6.19 |
